Source: US10495630B2, “Methods for the determination of compounds or compositions for the treatment of lipofuscin related diseases and compounds or compositions” (KATAIRO GMBH, priority 2014, dated 2019)
Where two headings read alike, the source gives them in different places. Each block holds one compound with its values, some of them ahead of it.

Experiments:
[1] = In vitro (cell-free) degradation of A2E in aqueous solution, LCMS; type: biochemical; conditions: for A2E / A2E (% control): A2E 20 μM + verteporfin 25 μM; for A2E (% control): control = A2E non-illuminated
Experimental: The degradation of N-retinylidene-N-retinylethanolamine (A2E)—component of lipofuscin—in an aqueous solution water was measured in the presence of potential degradation mediators and light illumination.
In a cell-free assay, A2E was dissolved in deionized H2O in a concentration of 20 μM and the solution was divided into two parts. To one part of the A2E solution verteporfin was added in an amount of 25 μM. […]
The amounts of A2E and its epoxides (A2E+O, A2E+2O) remaining were quantified by combined liquid chromatography and mass spectroscopy (LCMS) using the transitions indicated in Table 1.

Abca4 (−/−) mice [2] = experiment: A2E concentration in eyes of Abca4 (−/−) mice after intravitreal injection, HPLCMSMS; type: in vivo; conditions: for response vs control in vivo at 20000 µg/mL: Mus musculus, read-out: % of A2E relative to age matched untreated
Source text: […] […] The left eye was not treated and maintained as a control. Untreated eyes of age-matched mice lacking the Abca4 transporter were an additional control.
The concentration in each treated eye was then expressed as a percentage of the average concentration in all untreated eyes in the mice of the same age.
The left eye was not treated and maintained as a control. Untreated eyes of age-matched mice lacking the Abca4 transporter were an additional control.
The left eye was not treated and maintained as a control. Untreated eyes of age-matched mice lacking the Abca4 transporter were an additional control. […] Tryptophan is capable of absorbing and re-radiating light energy, as is riboflavin.
Water solutions were diluted 1:3 with acetonitrile and then sealed in vials for injection. 6 μL of the water acetonitrile solutions were injected onto a 2×50 mm Phenyl derived HPLC column (3 μm) and eluted with a gradient from 20% acetonitrile to 100% acetonitrile over 4 minutes at a flow rate of 500 μL/minute.

Abca4 (−/−) mice [3] = experiment: Verteporfin injection into the vitreous of Abca4 (−/−) mice, micrographs of semi-thin sections; type: in vivo; conditions: 2 μl intravitreal, 12 month old mice, four weeks after injection, normal daylight
Experimental: 2 μl of a Verteporfin solution were injected into the vitreous of eyes from Abca4 (−/−) mice (12 month old) which lack the Abca4 transporter in the disk membranes of photoreceptors. Four weeks after injection the eyes of the mice were enucleated, embedded into the epoxy resin Epon™ and cut into semi-thin sections. As a control eyes of age-matched untreated mice lacking the Abca4 transporter were prepared in the same way. […] The RPE cell layer is marked by arrows in the Figure. Comparing the micrographs of the semi-thin section of eyes of untreated (FIG. 5a) and treated (FIG. 5b) mice the cytoplasm of the RPE cells of untreated mice appears much denser due to the targeting of confluent lipofuscin components. […] In treated eyes predominately melanin granules remained in the cytoplasm of RPE cells.

[4] = test system: HuRPE, RPE cells isolated from human donor eyes that contain melanin and lipofuscin; experiment: Cellular verteporfin uptake in HuRPE cells; type: in vitro ADME; conditions: for Verteporfin in the cells after incubation: medium with 278 nM Verteporfin
Experimental: (§1) For testing factors influencing the cellular uptake of verteporfin to two cell types used:
HuRPE, RPE cells isolated from human donor eyes that contain melanin and lipofuscin
(§2) The cells were treated with 200 μl of a culture medium that contained 278 nM Verteporfin for the indicated time, the culture medium was discarded, the cells trypsinized, resuspended in 500 μl medium and counted.

[5] = test system: patient with putative dry AMD; experiment: Clinical use of the photosensitizer to treat AMD, blue light laser retinal fluorescence; type: in vivo; conditions: intravenous 6 mg/m^2 or ca 4 μg intravitreal; days 7, 14 and 28 versus pre-treatment
Experimental: A patient with putative dry AMD is examined and baseline retinal fluorescence is determined using the blue laser imaging device (Heidelberg engineering). The patient is subject to an intravenous dose of 6 mg/m^2 verteporf in by means of infusion of 30 ml over 10 minutes. An alternative to intravenous application is the direct intravitreal application of verteporf in. In this case, ca 4 μg of verteporfin is administered to an affected single eye. Fluorescence after 1, 2 and 4 weeks is compared with fluorescence at baseline. The eyes are treated alternately.
In the standard verteporfin treatment, fifteen minutes after the start of the infusion, a laser light at 689 nm delivered 50 J/cm^2 by application of an intensity of 600 mW/cm^2 over 83 seconds using a spot size with a diameter 1000 μm. […] After administration of verteporfin to a patient an exposure of the eyes of the patient to mild indoor light of about 500 lux. Alternatively, low filtering sunglasses can be used as a means to maintain an exposure of the eyes of the patient to 500 lux when outdoors. The exposure should be maintained for a period of at least 6 h per day.
Blue light laser retinal fluorescence is measured at days 7, 14 and 28 after treatment and compared with pre-treatment values. Specific reductions of retinal fluorescence>1-20% are on post-treatment examination. […]

melanin A2E particles = experiment: Assay for binding to A2E melanin particles; design: species or system S. officinalis; conditions: FIG. 3A; 37° C., 4 h
Experimental: To study the binding of A2E to melanin, a suspension of 2 mg/ml natural melanin (S. officinalis) is prepared in PBS, pH 7.4. The melanin suspension is brought to 37° C. and sonicated for 15 min to form a uniform suspension. The melanin suspension (0.75 ml) is measured in aliquots into glass test tubes (12×75 mm) under continuous shaking to avoid sedimentation. The solution of A2E (0.75 ml) is added to the above-mentioned melanin aliquots, and the tubes will be incubated in a shaker incubator at 37° C. and 300 rpm for 4 h.
Controls are prepared by incubating A2E in the absence of melanin in incubation medium and by incubating melanin without A2E. Compounds are added to melanin suspension from stock solutions. After incubation, the suspensions are centrifuged at 13,000 rpm for 15 min at room temperature to remove the melanin granules. The supernatant is collected, diluted with acetonitrile and analyzed by an LC-MS/MS method to determine the concentration of […] in the supernatant. The kinetic parameters of binding study, i.e., maximal binding capacity (rmax) and the binding affinity (k) are determined for A2E according to the previously reported method (Cheruvu et al., 2008).
A high percentage of soraprazan and demethoxysoraprazan—about 46% and about 53%, respectively—are found bound to the melanin A2E particles.

[6] = test system: ARPE-19, a human RPE cell line that lacks melanin and lipofuscin; experiment: Cellular verteporfin uptake in ARPE-19 cells; type: in vitro ADME; conditions: for Verteporfin in the cells after incubation: medium with 278 nM Verteporfin
Experimental: as §1
ARPE-19, a human RPE cell line that lacks melanin and lipofuscin
as §2

[7] = Solubility remark on the test substance; type: physicochemical; conditions: compared with the other tetracycline test substances, 20 mg/ml solution or suspension
[8] = test system: human retinal pigment epithelium (RPE) cells; experiment: Degradation of lipofuscin in human RPE cells (micrographs after one week); type: cell-based; conditions: test compound alone (SAD 50 μg/ml; cardioxane 10, 50 or 100 μM), one week incubation
Experimental: To explore the role of the reactive chemical species the human retinal pigment epithelium (RPE) cells were treated with the super oxide anion donor (SAD) soraprazan ((7R,8R,9R)-2,3-Dimethyl-8-hydroxy-7-ethoxy-9-phenyl-7,8,9,10-tetrahydro-imidazo-[1,2-h][1,7]-naphthyridin)—a member of the THPE family—either alone or in combination with a known radical oxygen scavenger, cardioxane.
After growing the hRPE-cells to confluence, the test compounds were added to seven cell cultures and the cells were incubated at 37° C. and 5% CO2. The SAD was added to the cell cultures in a concentration of 50 μg/ml either alone or in combination with cardioxane in a concentration of 10 μM, 50 μM or 100 μM. Additionally, three cell cultures were incubated only with cardioxane in a concentration of 10 μM, 50 μM or 100 μM. As control, one cell culture was grown without test compounds.
After one week of incubation micrographs of the differently incubated RPE cells were taken as shown in FIG. 2A to H. In the original images, lipofuscin in cells is visible as a yellow-gold-orange fluorescent structure, before a blue background. In the grey scale reproduction in FIG. 2 the yellow-gold-orange structure appear light grey (yellow) or dark grey (gold-orange) before a grey background. Areas of degradation of lipofuscin in the hRPE cells appears as bright blue to whitish structures which appear white in the in the grey scale reproduction and are circled in FIG. 2A.
The bright blue structures are only observed in the experimental set up with SAD alone (FIG. 2A).

RPE cells = conditions: healthy monkeys, human RPE cells from aged donors, mouse model for Stargardt's Disease; EP 2080513 A1 and literature; cited from earlier work
[9] = dyes and porphyrins, intravitreal 2 μl of 2 mg/mL, one week after injection
[10] = redox active small molecules and chelator, intravitreal 2 μl of 20 mg/ml, 16 hours after injection

Verteporfin in the cells after incubation ([4]; HuRPE, 1 h): 339 nM
Verteporfin in the cells after incubation ([4]; HuRPE, 18 h): 1206 nM
Increase of verteporfin concentration in the cells after 18 h ([4]; HuRPE, 18 h versus 1 h): about four-fold
Concentration of verteporfin in HuRPE compared to ARPE-19 ([4]; after 1 h of incubation): more than two-fold
Verteporfin in the cells after incubation ([6]; ARPE-19, 1 h): 159 nM
Verteporfin in the cells after incubation ([6]; ARPE-19, 18 h): 351 nM
Increase of verteporfin concentration in the cells after 18 h ([6]; ARPE-19, 18 h versus 1 h): about two-fold
Compound: verteporfin
A2E ([1]; 689 nm, 83 s): 14.338 µM
A2E (% control) ([1]; 689 nm, 83 s): 44 % control
A2E ([1]; non-illuminated, 5 min): 28.864 µM
A2E (% control) ([1]; non-illuminated, 5 min): 89 % control
A2E ([1]; white light, 5 min): 1.295 µM
A2E (% control) ([1]; white light, 5 min): 4 % control
% of A2E relative to age matched untreated (Abca4 (−/−) mice [2]; [9]): 90%
Concentration A2E (μM) in the treated eye (Abca4 (−/−) mice [2]; [9]): 27 µM
Removal of lipofuscin from the cytoplasm of RPE cells (Abca4 (−/−) mice [3]): substantial amounts of lipofuscin and melanolipofuscin were removed from the cytoplasm of RPE cells
Specific reductions of retinal fluorescence [5]: 1-20%
Proportion of compound bound to the melanin A2E particles after incubation (melanin A2E particles): bind to the A2E melanin particles although to a lower percentage

Solubility [7]: notably less soluble
Compound: CN(C)[C@@H]1C(O)=C(C(N)=O)C(=O)[C@@]2(O)C(O)=C3C(=O)c4c(O)ccc(Cl)c4[C@@H](O)[C@H]3C[C@@H]12 [Demeclocycline]
response vs control in vivo at 20000 µg/mL (Abca4 (−/−) mice [2]; 168 h, tetracycline antibiotics, intravitreal 2 μl of 20 mg/ml, one week after injection): 89%
Concentration A2E (μM) in the treated eye (Abca4 (−/−) mice [2]; tetracycline antibiotics, intravitreal 2 μl of 20 mg/ml, one week after injection): 37 µM

Degradation of the lipofuscin component A2E in cell free systems ([1]; cell free, in solution under illumination by visible light): degraded
Proportion of compound bound to the melanin A2E particles after incubation (melanin A2E particles): about 46%
Compound: COCCO[C@@H]1c2ccn3c(C)c(C)nc3c2N[C@H](c2ccccc2)[C@H]1O [Soraprazan, (7R,8R,9R)-2,3-Dimethyl-8-hydroxy-7-(2-methoxyethoxy)-9-phenyl-7,8,9,10-tetrahydro-imidazo[1,2-h] [1,7]naphthyridine]
response vs control in vivo at 20000 µg/mL (Abca4 (−/−) mice [2]; [10]): 61%
Concentration A2E (μM) in the treated eye (Abca4 (−/−) mice [2]; [10]): 31 µM
Degradation / removal of lipofuscin in hRPE cells [8]: removal of lipofuscin
Removal of natural lipofuscin from RPE cells (RPE cells): remove natural lipofuscin from RPE cells
